# Assay results published in article PMC5967867, “An NMDAR positive and negative allosteric modulator series share a binding site and are interconverted by methyl groups” (eLife, 2018).
# Values joined by “and” are separate entries in the source; they are usually repeats but may differ in a detail not shown here. Equal values may be shown once.
# Columns and labels:
# [1] = molecular target: GluN1/GluN2A NMDARs (Rattus norvegicus, UniProt P35439+Q00959); assay: Whole cell patch-clamp recordings, HEK293 cells expressing GluN1/GluN2A; type: cell-based; conditions: for modulation of high desensitized steady state responses / modulation of low desensitized steady state responses (drug/control): 10 µM, 100/30 µM glutamate/glycine; for modulation of high desensitized steady state responses / modulation of low desensitized steady state responses (drug/control) / Kd: HEK cells; for kon / koff: HEK293; for kon: read-out: association rate kon; for koff: read-out: dissociation rate koff; for Kd: calculated from association and dissociation rates, read-out: kinetically-determined affinity constant Kd
# Procedure: We studied NMDARs expressed in HEK293 cells to investigate the time course of modulator action. […] These modulators were tested on GluN1/GluN2A and GluN1/GluN2D to see whether there were differences in modulation given the distinct properties of these NMDAR subtypes. […] From these we calculated the kinetically-determined affinity constant (Kd), which we found to be similar to the EC50 values determined from concentration-response experiments. […] Complex actions of EU1794-4 and EU1794-27 were observed, with two temporally-distinct phases of modulation evident for the association of these modulators (Figure 4A). Both compounds produced a rapid inhibition followed by a slowly developing potentiating phase for EU1794-27. The rapid association rate determined during the rapid inhibition produced by EU1794-4 was approximately three times faster than EU1794-2; similarly, the dissociation rate was also faster for EU1794-4 than EU1794-2. Quantitative analysis of the slower phases was challenging due to its lower signal-to-noise ratio. Likewise, the rapid inhibitory phase was also difficult to measure for EU1794-27 because its rapid time course was convolved with the potentiation time course. Additionally, the depotentiation time course is preceded by a transient enhancement of the current response, followed by a relaxation to the pre-modulation level. The time course for potentiation and depotentiation were best fit with an exponential function summed with an additional linear component after the rapid phase subsided. […] All modulatory effects were independent of voltage (Figure 4—figure supplement 1A). The steady state modulator responses from HEK293 cells approximately match the concentration-response relationship determined from TEVC recordings from X. laevis oocytes (Figure 4A, inset graphs). The time-course of modulator binding of EU1794-2, EU1794-4 and EU1794-27 was also determined for GluN1/GluN2A (Figure 4C,D). Higher Kd values (lower potency) were determined for each molecule at GluN1/GluN2A as compared to GluN1/GluN2D that parallel EC50 values determined using X. laevis oocytes. Similar to oocyte data, robust inhibition was produced by EU1794-2, modest inhibition was produced by EU1794-4, and transient inhibition and recovery was observed by the application of EU1794-27. […] The low desensitized group (40% average desensitization) was modulated by 107%, whereas the high desensitized group (10% average desensitization) was modulated to 247% of control by 10 µM EU1794-27 (Figure 4C and Figure 4—figure supplement 1F).
# cDNAs for rat wild type NMDAR subunits GluN1-1a (GenBank U11418, U08261; hereafter GluN1 or GluN1a), GluN1-1b (U08263, hereafter GluN1b), GluN2A (D13211), GluN2B (U11419), GluN2C (M91563), and GluN2D (L31611, modified as described in [Monyer et al., 1994]) were provided by Drs. S. Heinemann (Salk Institute), S. Nakanishi (Kyoto University), and P. Seeburg (University of Heidelberg). Site-directed mutagenesis was conducted using the QuikChange kit (Agilent Technologies, Santa Clara, CA) following the recommended protocol. DNA sequencing was used to verify all mutations. The amino acid numbering system started with the initiating methionine as residue number one. For expression in Xenopus laevis oocytes, cDNA constructs were linearized by restriction enzymes, and subsequently used to synthesize in vitro cRNAs following the manufacturer’s protocol (mMessage mMachine, Ambion, ThermoFisher Scientific, Waltham, MA).
# HEK293 cells (CRL-1573, ATCC, Manassas, VA) were maintained in a tissue culture room solely reserved for their culturing and transfected using a CaPO4 protocol to express the diheteromeric NMDARs as previously described ([Hansen et al., 2013]). Cell lines were obtained directly from the supplier, were expanded, frozen and kept in liquid nitrogen in a dewar. Mycoplasma testing was not performed. cDNA ratios for transfection were 1:1:1 (GluN2D) or 1:1:5 (GluN2A) for GluN1:GluN2:GFP. […]
# [2] = Racemization time course of enantiomers in working solution (functional assessment); type: physicochemical; conditions: standard experimental (aqueous working) solution
# Text: The enantiomers of EU1794-27 were separated to determine whether the racemic activity reflected the actions of only one enantiomer (see Supplemental methods). (-)-EU1794-27 potentiated NMDAR responses similarly to the racemic mixture (Figure 8—figure supplement 1A, Table 7). […] We previously reported ([Katzman et al., 2015]) that purified enantiomers were likely to racemize in aqueous solutions, which should proceed by a first-order reaction dependent on multiple factors such as ionic strength, pH, buffer, etc. ([Smith et al., 1978]). Thus, to quantitatively determine if racemization would impact our experiments using the enantiomers, we performed a functional assessment of this property in our standard experimental solution. […] Both enantiomers of EU1794-4 inhibited NMDAR responses, but with different potencies (Figure 8—figure supplement 1C, Supplementary File 2). […] All enantiomer studies, other than the racemization time-course, were performed rapidly to minimize any racemization, being completed in less than 80 min after making the aqueous solution of modulator.
# Figure 8. The enantiomers of EU1794-4 and EU1794-27 have different action. […] (C) Single concentration competition experiments illustrating an interaction between both enantiomers of EU1794-4 (+and -) and the positive modulating enantiomer of EU1794-27 (-) at GluN1/GluN2D. […] Figure 8—figure supplement 1. […]
# [3] = concentration dependence of linear component of time course
# Sequence of GluN1/GluN2A NMDARs (Q00959 23-1464, other chains not shown): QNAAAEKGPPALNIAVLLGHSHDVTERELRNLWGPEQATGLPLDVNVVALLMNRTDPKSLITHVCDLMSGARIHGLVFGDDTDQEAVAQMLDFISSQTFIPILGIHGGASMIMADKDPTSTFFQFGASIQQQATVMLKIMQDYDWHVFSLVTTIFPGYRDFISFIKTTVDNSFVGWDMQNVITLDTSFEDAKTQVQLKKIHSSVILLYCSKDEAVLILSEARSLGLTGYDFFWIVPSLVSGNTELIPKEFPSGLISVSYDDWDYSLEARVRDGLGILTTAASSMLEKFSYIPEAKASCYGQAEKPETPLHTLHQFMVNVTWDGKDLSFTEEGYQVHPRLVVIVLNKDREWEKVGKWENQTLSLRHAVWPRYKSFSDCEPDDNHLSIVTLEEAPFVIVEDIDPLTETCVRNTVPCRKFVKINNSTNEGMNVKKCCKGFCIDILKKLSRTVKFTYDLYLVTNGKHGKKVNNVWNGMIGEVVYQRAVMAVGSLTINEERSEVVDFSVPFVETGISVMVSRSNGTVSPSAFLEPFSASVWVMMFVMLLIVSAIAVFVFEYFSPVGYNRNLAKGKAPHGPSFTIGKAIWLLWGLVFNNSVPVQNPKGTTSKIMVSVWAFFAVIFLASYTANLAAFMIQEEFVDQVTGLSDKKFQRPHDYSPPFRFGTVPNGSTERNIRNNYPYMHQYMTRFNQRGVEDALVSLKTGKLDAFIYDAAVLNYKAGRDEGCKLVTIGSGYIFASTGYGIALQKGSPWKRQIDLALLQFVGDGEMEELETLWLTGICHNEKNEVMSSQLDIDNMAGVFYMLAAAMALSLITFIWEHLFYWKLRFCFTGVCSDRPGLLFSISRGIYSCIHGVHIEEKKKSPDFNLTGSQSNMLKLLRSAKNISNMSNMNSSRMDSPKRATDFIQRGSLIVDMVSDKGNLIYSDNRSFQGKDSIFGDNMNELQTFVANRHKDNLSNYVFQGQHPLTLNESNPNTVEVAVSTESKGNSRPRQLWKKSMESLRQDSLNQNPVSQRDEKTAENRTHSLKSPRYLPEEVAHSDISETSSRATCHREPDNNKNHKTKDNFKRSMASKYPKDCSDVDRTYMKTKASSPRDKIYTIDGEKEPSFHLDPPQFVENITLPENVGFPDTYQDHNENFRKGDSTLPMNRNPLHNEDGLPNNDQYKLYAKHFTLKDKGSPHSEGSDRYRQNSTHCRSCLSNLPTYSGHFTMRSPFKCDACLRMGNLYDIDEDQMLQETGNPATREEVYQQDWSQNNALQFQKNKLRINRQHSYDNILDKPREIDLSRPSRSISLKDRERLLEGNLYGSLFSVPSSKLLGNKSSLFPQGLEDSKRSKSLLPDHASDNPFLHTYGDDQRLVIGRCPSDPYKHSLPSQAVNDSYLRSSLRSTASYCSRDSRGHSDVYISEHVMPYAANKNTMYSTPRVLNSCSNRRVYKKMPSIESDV
Structure (SMILES),modulation of high desensitized steady state responses [1],modulation of low desensitized steady state responses (drug/control) [1],kon [1] [M⁻¹ s⁻¹],koff [1] [s⁻¹],Kd [1] [µM],half-life at 10 µM [2] [h],"association linear component slope mon [1, 3]","dissociation linear component slope moff [1, 3]"
"CCOC(=O)c1c(NC(=O)CC2SC(=N)NC2=O)sc2c1CCC(C)C2 (stereo not drawn) [EU1794-2, ethyl 2-(2-(2-imino-4-oxothiazolidin-5-yl)acetamido)-6-methyl-4,5,6,7-tetrahydrobenzo[b]thiophene-3-carboxylate]",32 % of control,13 % of control,390000,0.938,2.41,–,–,–
"CCOC(=O)c1c(NC(=O)CC2SC(=N)NC2=O)sc2c1CCCC2 (stereo not drawn) [EU1794-4, ethyl 2-(2-(2-imino-4-oxothiazolidin-5-yl)acetamido)-4,5,6,7-tetrahydrobenzo[b]thiophene-3-carboxylate]",–,47 % of control,502000,3.94,7.85,3.27,–,–
"CC(C)(C)OC(=O)c1c(NC(=O)CC2SC(=N)NC2=O)sc2c1CCCC2 (stereo not drawn) [EU1794-27, tert-butyl 2-(2-(2-imino-4-oxothiazolidin-5-yl)acetamido)-4,5,6,7-tetrahydrobenzo[b]thiophene-3-carboxylate]",247 % of control and 247 ± 31 % of control,107 % of control and 107 ± 16 % of control,59200,0.426,7.2,3.28,−0.33 pA/(s*µM),0.16 pA/(s*µM)
